Data as given in the supplement of paper PMC10307832.

What was measured:
Assay in all cases: relative viability (nuclei count vs DMSO), 5 days (fraction); higher = more cells survive
[1] = compound: CC1=C(C(=O)N2C=CSC2=N1)CCN3CCC(=C(C4=CC=CC=C4)C5=CC=C(C=C5)F)CC3 + CC(=O)c1c(C)c2cnc(Nc3ccc(N4CCNCC4)cn3)nc2n(C2CCCC2)c1=O [Palbociclib] (partner 0.5 µM)
In short: (§1)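 Cells from lung cancer lines were seeded into 1536-well plates and, one day later, dosed by pin tool. Treatments were either a single drug or a fixed dose of an anchor drug with five library-drug doses (not always all listed) in √10 steps. After 5 days, nuclei were stained in a one-step fixation (final 0.05% Triton X-100, 1% formaldehyde, 1 ug/ml Hoechst) and counted on 4× images, and relative viability is the treated-to-vehicle nuclei ratio, as the median of duplicate plates.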

[2] = compound: CC1=C(C(=O)N2C=CSC2=N1)CCN3CCC(=C(C4=CC=CC=C4)C5=CC=C(C=C5)F)CC3 + Cc1nc(Nc2ncc(C(=O)Nc3c(C)cccc3Cl)s2)cc(N2CCN(CCO)CC2)n1 [Dasatinib] (partner 0.075 µM)
In short: as §1

[3] = compound: CC1=C(C(=O)N2C=CSC2=N1)CCN3CCC(=C(C4=CC=CC=C4)C5=CC=C(C=C5)F)CC3 + O=C(CCCCCCC(=O)Nc1ccccc1)NO [Vorinostat] (partner 1 µM)
In short: as §1

[4] = compound: CC1=C(C(=O)N2C=CSC2=N1)CCN3CCC(=C(C4=CC=CC=C4)C5=CC=C(C=C5)F)CC3 + Nc1nc2[nH]cc(CCc3ccc(C(=O)N[C@@H](CCC(=O)O)C(=O)O)cc3)c2c(=O)[nH]1 [Pemetrexed] (partner 0.2 µM)
In short: as §1

Cell Line	relative viability ([1]; first compound 0.08 µM)	relative viability ([1]; first compound 0.253 µM)	relative viability ([1]; first compound 0.8 µM)	relative viability ([1]; first compound 2.53 µM)	relative viability ([1]; first compound 8 µM)	relative viability ([2]; first compound 0.08 µM)	relative viability ([2]; first compound 0.253 µM)	relative viability ([2]; first compound 0.8 µM)	relative viability ([2]; first compound 2.53 µM)	relative viability ([2]; first compound 8 µM)	relative viability ([3]; first compound 0.08 µM)	relative viability ([3]; first compound 0.253 µM)	relative viability ([3]; first compound 0.8 µM)	relative viability ([3]; first compound 2.53 µM)	relative viability ([3]; first compound 8 µM)	relative viability ([4]; first compound 0.08 µM)	relative viability ([4]; first compound 0.253 µM)	relative viability ([4]; first compound 0.8 µM)	relative viability ([4]; first compound 2.53 µM)	relative viability ([4]; first compound 8 µM)
201T	0.355	0.35	0.366	0.35	0.348	0.614	0.628	0.541	0.713	0.569	1.07	0.93	1.02	1.01	0.595	0.304	0.335	0.335	0.342	0.24
A-427	0.533	0.565	0.499	0.541	0.531	0.788	0.585	0.715	0.696	0.457	0.878	0.824	0.86	0.91	0.748	1.06	1.07	0.929	1.07	0.952
ABC-1	0.579		0.581	0.559	0.67	0.622	0.606	0.455	0.512	0.467	1.14		0.938	0.949	0.784					
BEN	0.455	0.498	0.479	0.558	0.498	0.318	0.319	0.294	0.362	0.284	0.548	0.589	0.523	0.682	0.495	0.928	0.753	0.715	0.942	0.753
CAL-12T	0.371	0.389	0.434	0.462	0.319	0.319	0.268	0.373	0.527	0.279	0.566	0.728	0.727	0.957	0.513	1.31	1.21	1.32	1.57	0.765
COR-L23	0.292	0.306	0.255	0.286	0.27	0.383	0.341	0.457	0.59	0.403	0.438	0.365	0.46	0.421	0.405	0.198	0.21	0.199	0.203	0.203
COR-L 105	0.439	0.419	0.383	0.406	0.383	0.416	0.32	0.241	0.372	0.294	0.58	0.738	0.882	1.29	0.607	1.03	1.26	1.27	1.4	0.89
ChaGo-K-1	0.919	0.92	0.989	1.05	0.649	0.598	0.635	0.59	0.639	0.547	0.616	0.76	0.809	0.757	0.597	0.277	0.27	0.259	0.267	0.236
EKVX	0.371	0.366	0.349	0.397	0.293	0.359	0.631	0.519	0.434	0.549	0.577	0.723	0.651	0.63	0.561	0.366	0.382	0.436	0.432	0.35
EMC-BAC-2	0.497	0.494	0.493	0.46	0.506	0.287	0.329	0.277	0.328	0.298	0.416		0.343	0.398	0.377	0.379	0.482	0.49	0.461	0.386
EPLC-272H	0.321	0.316	0.33	0.329	0.337	0.364	0.331	0.378	0.305	0.22	0.41		0.444	0.505	0.474	0.335		0.333	0.288	0.416
H3255	0.273	0.317	0.313	0.311	0.303	0.349	0.357	0.307	0.339	0.375	0.821	0.922	0.841	0.836	0.666	0.554	0.532	0.552	0.565	0.552
HARA	0.307	0.275	0.276	0.289	0.285	0.243	0.23	0.265	0.229	0.136	0.477	0.545	0.513	0.665	0.372	0.253	0.252	0.253	0.252	0.228
HCC-15	0.738	0.744	0.679	0.729	0.556	0.638	0.561	0.643	0.678	0.586	0.927	0.96	0.869	0.788	0.606	0.216	0.207	0.225	0.231	0.227
HCC-44	0.956	0.997	1.02	1.01	0.86						1.19	1.19	1.09	1.24	0.93	0.729	0.664	0.612	0.644	0.554
HCC-78	0.336	0.462	0.484	0.519	0.349	0.344	0.356	0.373	0.344	0.248	0.385	0.458	0.546	0.424	0.476	0.798	0.867	0.935	0.923	0.66
HCC-366	0.392	0.394	0.458	0.337	0.277	0.697	0.631	0.711	0.545	0.247	0.344	0.405	0.332	0.403	0.256	0.199	0.169	0.206	0.156	0.139

Cell Line	relative viability ([1]; first compound 0.08 µM)	relative viability ([1]; first compound 0.253 µM)	relative viability ([1]; first compound 0.8 µM)	relative viability ([1]; first compound 2.53 µM)	relative viability ([1]; first compound 8 µM)	relative viability ([2]; first compound 0.08 µM)	relative viability ([2]; first compound 0.253 µM)	relative viability ([2]; first compound 0.8 µM)	relative viability ([2]; first compound 2.53 µM)	relative viability ([2]; first compound 8 µM)	relative viability ([3]; first compound 0.08 µM)	relative viability ([3]; first compound 0.253 µM)	relative viability ([3]; first compound 0.8 µM)	relative viability ([3]; first compound 2.53 µM)	relative viability ([3]; first compound 8 µM)	relative viability ([4]; first compound 0.08 µM)	relative viability ([4]; first compound 0.253 µM)	relative viability ([4]; first compound 0.8 µM)	relative viability ([4]; first compound 2.53 µM)	relative viability ([4]; first compound 8 µM)
HCC-827	0.483	0.496	0.491	0.486	0.455	0.212	0.288	0.38	0.3	0.265	0.831	0.655	0.797	0.953	0.688	0.253	0.237	0.251	0.268	0.235
HOP-62	0.439	0.479	0.457	0.411	0.288	0.595	0.482	0.621	0.575	0.548	0.522	0.628	0.552	0.468	0.323	0.335	0.315	0.306	0.336	0.12
LC-2-ad	0.463	0.459	0.475	0.473	0.458	0.766	0.538	0.422	0.644	0.497	0.661	0.517	0.771	0.748	0.53	0.247	0.268	0.277	0.271	0.281
LCLC-97TM1	0.255	0.217	0.284	0.283	0.205	0.857	0.773	0.949	0.92	0.658	0.521	0.831	0.754	0.734	0.415	0.196	0.19	0.173	0.198	0.196
LCLC-103H	0.523	0.495	0.491	0.504	0.453	0.498	0.409	0.439	0.424	0.339	0.891	0.784	0.76	0.75	0.709	0.542	0.464	0.437	0.437	0.49
LK-2	0.766	0.607	0.822	0.791	0.575	0.273	0.249	0.354	0.282	0.268	0.266	0.233	0.333	0.319	0.199	0.243	0.286	0.285	0.281	0.181
LOU-NH91	0.501	0.59	0.543	0.547	0.536	0.527	0.586	0.557	0.594	0.435	0.973	0.832	0.856	0.948	0.776	0.303	0.3	0.438	0.387	0.346
LU99A	0.383	0.367	0.416	0.387	0.447	0.507	0.544	0.57	0.551	0.422	0.433	0.418	0.381	0.525	0.207	0.167	0.193	0.164	0.168	0.152
LXF-289	0.595	0.666	0.604	0.599	0.469	0.276	0.18	0.214	0.209	0.189	0.527	0.813	0.75	0.738	0.613	0.931	0.883	0.871	0.901	0.76
NCI-H23	0.542	0.492	0.463	0.568	0.403	0.659	0.674	0.867	0.703	0.518	0.665	0.564	0.473	0.572	0.32	0.698	0.55	0.585	0.804	0.516
NCI-H322M	0.552	0.492	0.479	0.504	0.524	0.267	0.238	0.246	0.254	0.27	0.898	0.845	0.862	0.953	0.943	0.686	0.622	0.555	0.706	0.683
NCI-H358	0.138	0.136	0.145	0.162	0.128	0.175	0.21	0.133	0.153	0.218	0.687	0.753	0.808	0.885	0.441	0.204	0.196	0.16	0.179	0.162
NCI-H596						0.636	0.653	0.612	0.627	0.421	0.57	0.576	0.626	0.583	0.587	0.49	0.511	0.488	0.584	0.466
NCI-H727	0.582	0.547	0.577	0.665	0.701	0.319	0.338	0.394	0.396	0.319	1.08	1.3	1.16	1.13	1.07					
NCI-H1563						0.502	0.531	0.485	0.5	0.5						0.971	0.766	0.744	0.833	0.653
NCI-H1648	0.254	0.316	0.22	0.326	0.249						0.26	0.36	0.603	0.4	0.338	0.714	0.657	0.749	0.712	0.423
NCI-H1792	0.353	0.663	0.649	0.564	0.271	0.72	0.574	0.817	0.837	0.352						0.523	0.543	0.606	0.626	0.293
